Series [1] is described as follows: Metabolic stability assay in liver microsomes. The series is classed as in vitro ADME, human. (Liver microsomes are vesicles of endoplasmic reticulum, rich in cytochrome P450 enzymes.)
Series [2] can be described thus: Metabolic stability assay in liver microsomes. The series is classed as in vitro ADME, mouse.

Usually microsomal CLint stands for the rate of metabolic loss divided by the concentration. Lower therefore signals slow turnover. As for `Cc1nnc2n1-c1ccc(Cl)cc1C(c1ccccc1)=NC2` [Alprazolam], the “HLM t1/2” value in series [1] (human liver microsomes 0.5 mg protein/mL, 2.0 μM compound, 37°C) was found to be 832 min. The microsomal CLint at 2 μM in series [1] (human, liver microsomes) turned out to be 2 µL/min/mg; in series [2] (mouse, liver microsomes), 5 µL/min/mg. In addition, in series [2] (mouse liver microsomes 0.5 mg protein/mL, 2.0 μM compound, 37°C), the “MLM t1/2” value came out at 296 min.

(Values after paper PMC11087803 (Proceedings of the National Academy of Sciences of the …, 2024).)
